From ChEMBL document CHEMBL1201862, “PubChem BioAssay data set” (2004)
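Cells were grown in 96-well plates and exposed to each compound for 48 hours at five concentrations; endpoints were interpolated linearly between bracketing concentrations, or set to the highest concentration if not reached. The concentration for 50% growth inhibition is given as GI50.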 The source made the active and inactive calls. No stated cut-off is given here; in the data, active = GI50 up to about 1.1 µM and inactive = higher.

Legend:
Experiment in all cases: NCI-60 cell line screen, 48 h
NCI-H522 = test system: NCI-H522
SK-MEL-2 = test system: SK-MEL-2
SF-268 = test system: SF-268
SNB-75 = test system: SNB-75
UACC-257 = test system: UACC-257
CAKI-1 = test system: CAKI-1
MDA-MB-435 = test system: MDA-MB-435
HOP-62 = test system: HOP-62
MDA-N = test system: MDA-N
A549 = test system: A549
SF-539 = test system: SF-539
M14 = test system: M14
HL-60 = test system: HL-60
MDA-MB-231 = test system: MDA-MB-231
SK-MEL-5 = test system: SK-MEL-5
HT-29 = test system: HT-29
HOP-92 = test system: HOP-92
NCI-H460 = test system: NCI-H460
OVCAR-3 = test system: OVCAR-3
HCC 2998 = test system: HCC 2998

| SMILES | GI50 (NCI-H522) | GI50 (SK-MEL-2) | GI50 (SF-268) | GI50 (SNB-75) | GI50 (UACC-257) | GI50 (CAKI-1) | GI50 (MDA-MB-435) | GI50 (HOP-62) | GI50 (MDA-N) | GI50 (A549) | GI50 (SF-539) | GI50 (M14) | GI50 (HL-60) | GI50 (MDA-MB-231) | GI50 (SK-MEL-5) | GI50 (HT-29) | GI50 (HOP-92) | GI50 (NCI-H460) | GI50 (OVCAR-3) | GI50 (HCC 2998) |
| --- | --- | --- | --- | --- | --- | --- | --- | --- | --- | --- | --- | --- | --- | --- | --- | --- | --- | --- | --- | --- |
| CN(C)CCSc1cc(-c2ccccc2)c2ccccc2n1 | 10.7 µM (inactive) | 14.2 µM (inactive) | 11.8 µM (inactive) | 4.04 µM (inactive) | 10.4 µM (inactive) | 16.3 µM (inactive) | 10.1 µM (inactive) | 10.3 µM (inactive) | 10.2 µM (inactive) | 13.6 µM (inactive) | 9.18 µM (inactive) | 2.69 µM (inactive) | 3.69 µM (inactive) | 11.3 µM (inactive) | 1.63 µM (inactive) | 5.78 µM (inactive) |  |  |  |  |
| CN(C)CCSS(=O)(=O)O | 83.9 µM (inactive) | > 100 µM (inactive) | > 100 µM (inactive) | < 0.01 µM (active) |  | > 100 µM (inactive) | > 100 µM (inactive) | 15.4 µM (inactive) | > 100 µM (inactive) | > 100 µM (inactive) | > 100 µM (inactive) | > 100 µM (inactive) | > 100 µM (inactive) | > 100 µM (inactive) | > 100 µM (inactive) | > 100 µM (inactive) | > 100 µM (inactive) | 16 µM (inactive) | 9.16 µM (inactive) |  |
| CCCNC(=O)c1cc(NC(=O)c2cc(NC(=O)/C=C/c3ccccc3)c(OC)c(OC)c2)c(OC)c(OC)c1 | 4.72 µM (inactive) | 7.83 µM (inactive) | 2.05 µM (inactive) | 2.49 µM (inactive) | 14.2 µM (inactive) |  | 12 µM (inactive) | 4.41 µM (inactive) | 13.8 µM (inactive) | 5.64 µM (inactive) | 6.14 µM (inactive) | 38.4 µM (inactive) | > 100 µM (inactive) | 1.26 µM (inactive) |  | 11.8 µM (inactive) |  | 11.8 µM (inactive) | 4.01 µM (inactive) |  |
| CSC1=N/C(=C\c2ccccc2)C(=O)N1CN1CCOCC1 | 51.8 µM (inactive) | > 100 µM (inactive) | 61.5 µM (inactive) | 69.2 µM (inactive) |  |  | 93.8 µM (inactive) | > 100 µM (inactive) | > 100 µM (inactive) | > 100 µM (inactive) |  | 91.8 µM (inactive) | 54.6 µM (inactive) | > 100 µM (inactive) | 50.5 µM (inactive) | 30.8 µM (inactive) | > 100 µM (inactive) |  | > 100 µM (inactive) |  |
| c1ccc([B-]2(c3ccccc3)NCCCO2)cc1 | 33.4 µM (inactive) | 89.9 µM (inactive) | > 100 µM (inactive) |  | 49.9 µM (inactive) | 40.6 µM (inactive) | 46.3 µM (inactive) | > 100 µM (inactive) | 42.7 µM (inactive) | 58.6 µM (inactive) | 33.3 µM (inactive) | 31.3 µM (inactive) | > 100 µM (inactive) | 42.5 µM (inactive) | 24.8 µM (inactive) | > 100 µM (inactive) | 20.3 µM (inactive) | 72.8 µM (inactive) | 35.1 µM (inactive) |  |
| COc1cc(O)c2c(O)c3c(=O)oc(C)cc3c(OC)c2c1 [PAEPALANTINE] | 35.4 µM (inactive) | 31.9 µM (inactive) | 34.3 µM (inactive) |  | 31 µM (inactive) | 31 µM (inactive) | 18.3 µM (inactive) | 30.3 µM (inactive) | 27.4 µM (inactive) | 25.8 µM (inactive) | 21 µM (inactive) | 32 µM (inactive) | 27.3 µM (inactive) | 28.4 µM (inactive) | 25.2 µM (inactive) | 21.2 µM (inactive) | 16.1 µM (inactive) | 32.4 µM (inactive) | 27.2 µM (inactive) |  |
| O=S(=O)(c1cc(Cl)ccc1Cl)N1CCN(c2cccc(Cl)c2)CC1 | > 100 µM (inactive) |  | > 100 µM (inactive) | > 100 µM (inactive) | > 100 µM (inactive) | > 100 µM (inactive) |  | > 100 µM (inactive) | 59.2 µM (inactive) | > 100 µM (inactive) | > 100 µM (inactive) | > 10 µM (inactive) | > 100 µM (inactive) | > 100 µM (inactive) | 52.6 µM (inactive) | 58.7 µM (inactive) | > 100 µM (inactive) | > 100 µM (inactive) | > 100 µM (inactive) | > 100 µM (inactive) |
| Cc1cccc(Nc2cc(Cl)nc(SCC(=O)O)n2)c1C [PIRINIXIC ACID] | > 100 µM (inactive) | > 100 µM (inactive) |  | > 100 µM (inactive) | > 100 µM (inactive) | > 100 µM (inactive) | > 100 µM (inactive) | > 100 µM (inactive) | > 100 µM (inactive) | > 100 µM (inactive) | > 100 µM (inactive) | > 100 µM (inactive) | > 100 µM (inactive) | > 100 µM (inactive) | > 100 µM (inactive) | > 100 µM (inactive) | > 100 µM (inactive) | > 100 µM (inactive) | > 100 µM (inactive) |  |
| CCCN1C(=O)CC(C)N(Cc2ccccc2Cl)C1=S (stereo not drawn) | 21.1 µM (inactive) | 21.7 µM (inactive) | 24.4 µM (inactive) |  | 17.2 µM (inactive) | 36.9 µM (inactive) | 23.7 µM (inactive) | 35.4 µM (inactive) | 21.5 µM (inactive) | 35.3 µM (inactive) | 16 µM (inactive) | 25.7 µM (inactive) | 37.4 µM (inactive) | 28.7 µM (inactive) | 17.8 µM (inactive) | 37.9 µM (inactive) | 24.2 µM (inactive) | 31 µM (inactive) | 26.1 µM (inactive) |  |
| Cc1[nH]n(-c2nc(O)c(C)c(=O)[nH]2)c(=O)c1CCO | > 100 µM (inactive) | > 100 µM (inactive) | > 100 µM (inactive) | 45.6 µM (inactive) | > 100 µM (inactive) | > 100 µM (inactive) | > 100 µM (inactive) |  | > 100 µM (inactive) | > 100 µM (inactive) | > 100 µM (inactive) | > 100 µM (inactive) | > 100 µM (inactive) | > 100 µM (inactive) | > 100 µM (inactive) | > 100 µM (inactive) | > 100 µM (inactive) | > 100 µM (inactive) |  |  |
| COc1ccc(NC(=O)c2cc(NC(=O)/C=C/c3ccccc3)c(OC)c(OC)c2)cc1 |  | 2.58 µM (inactive) | 56.8 µM (inactive) | 2.26 µM (inactive) | 44.1 µM (inactive) | 8.73 µM (inactive) | 3.07 µM (inactive) | 31.5 µM (inactive) | 3.1 µM (inactive) | 7.55 µM (inactive) | 5.38 µM (inactive) | > 100 µM (inactive) | 6.19 µM (inactive) | 9.55 µM (inactive) | 5.82 µM (inactive) | 8.41 µM (inactive) | 16.8 µM (inactive) | 11.7 µM (inactive) | 60.1 µM (inactive) |  |
| N#Cc1sc2c(c1OC(=O)c1cccs1)c(=O)n(-c1ccccc1)c(=S)n2-c1ccccc1 | 16.4 µM (inactive) | 21.1 µM (inactive) | 30.1 µM (inactive) | 38.7 µM (inactive) | 32 µM (inactive) | 32.4 µM (inactive) | 29.9 µM (inactive) | 19.6 µM (inactive) | 26.7 µM (inactive) | 31 µM (inactive) | 22.4 µM (inactive) | 19.1 µM (inactive) | 21.3 µM (inactive) | 20.1 µM (inactive) | 16 µM (inactive) | 29.5 µM (inactive) |  | 28.2 µM (inactive) | 31.1 µM (inactive) |  |
